The assay deals with child with PMM2-CDG. The assay is described as follows: Single patient (P1) study: clinical efficacy (ICARS, NPCRS, BMI, weight). The format is in vivo, human. Particulars: same patient, five months acetazolamide before epalrestat; from 66. On the procedure: Prospectively collected clinical and laboratory data in 24 PMM2-CDG patients: The genetic, laboratory, metabolic, and clinical data of 24 PMM2-CDG patients were evaluated (TABLES 2A and 2B). Disease severity was assessed by Nijmegen Pediatric CDG Rating Scale (NPCRS), (most severe=82; mild (0-14), moderate (15-25), severe (>26)) (Achouitar et al., J Inherit Metab Dis 34:923-927, 2011; and Martinez-Monseny et al., Ann Neurol 85:740-751, 2019). Patient P1 and twin patients P4 and P5 also were discussed elsewhere (Qian et al., JIMD Rep 56:27-33, 2020; and Jaeken et al., Ped Res 14:179, 1980). P1, enrolled in a single IND clinical trial, was additionally evaluated by the International cooperative ataxia rating scale (ICARS) (Trouillas et al., J Neurol Sci 145:205-211, 1997), which assesses limb ataxia, dysarthria, posture and gait disturbances, and oculomotor disorders (0=normal; 100=most severe). Urinary polyols including sorbitol and mannitol were analyzed by GC/MS in 23 out of the 24 PMM2-CDG patients (patient P6 was deceased). In addition, functional in vitro data was collected from the fibroblasts of P1-P6, P8, P10, P17, P19, and P24.
Study design: An open label, single patient (P1) compassionate use study was designed to assess the safety and tolerability of oral epalrestat therapy in a child with PMM2-CDG.
Patient assessment: Prior to the first dose of epalrestat and at 1, 2, 3, 6, 8, 9, 12 months during treatment, concomitant medications and vital signs were recorded and the patient was evaluated using the NPCRS. In addition, blood was drawn for serum chemistry, hematology, and plasma levels of epalrestat. Urine was collected for polyol measurement at baseline and twice over the course of 12 months of therapy.
Drug administration: Epalrestat was administered orally, 3 times per day (TID) before meals in a divided dose (0.8 mg/kg/day; 5 mg TID) of epalrestat (Ono Pharmaceuticals, Osaka, Japan) starting on Day 1 of the study.
Safety and efficacy: Safety measures included vital signs, change in CBC, liver function (INR, bilirubin, transaminases, and albumin) in blood, change in liver elastography, and following the pharmacokinetic profile of epalrestat. The efficacy of epalrestat was studied by clinical follow up (physical exam, NPCRS, ICARS), standard laboratory tests, and transferrin glycoform analysis by mass spectrometry.

In the case of `CC(=O)Nc1nnc(S(N)(=O)=O)s1` [acetazolamide], the ICARS score turned out to be 56.

For the origin of these results see patent publication US20240003908A1, “POLYOL BIOMARKERS FOR CONGENITAL DISORDERS OF GLYCOSYLATION” (Mayo Foundation for Medical Education and Research, priority 2020, published 2024).
